The values below come from article PMC7226357, “Aspirin: A Suicide Inhibitor of Carbonic Anhydrase II” (Biomolecules, 2020).

In the experiment the target is T1, Carbonic anhydrase II (Homo sapiens, UniProt P00918).
T1 construct: gene CA2
Put plainly: colorimetric esterase assay at […] nm (substrate of the assay). In kind it is biochemical.

Regarding `CC(=O)Oc1ccc([N+](=O)[O-])cc1` [pNPA, 4-nitrophenyl acetate], the “colorimetric esterase assay at 348 nm (substrate of the assay)” value is listed as “CAII cleaves the ester bond of 4-nitrophenyl acetate, generating 4-nitrophenol”.
